Paper PMC3610419, “A Randomized, Double-Blind Placebo Controlled Trial of Balapiravir, a Polymerase Inhibitor, in Adult Dengue Patients” (The Journal of Infectious Diseases, 2012)
Like-named read-outs stand apart in the source and are kept apart here.

Experiments:
[1] = tested on: DENV-1; assay: Inhibition of DENV replication in Huh-7 cells, viral RNA by quantitative real time PCR; format: cell-based, dengue virus; settings: 48 hrs, mean ± SD of 3 experiments
Experimental: (§1) ^a Each experiment was done in duplicate. The mean and standard deviation shown represent 3 independent (different date) experiments for each virus tested. Huh-7 cells were plated in 96-well plate at 10,000 cells/well in DMEM containing 10 % FBS in 100 μl volume one day prior to set up of the assay. The following day the medium was aspirated off and diluted virus at a multiplicity of infection of 0.5 or media was added to the assay and control wells, respectively. The virus was allowed to attach to the cells for two hours at 37°C in a humidified 5% C02 atmosphere while the dilutions of the test molecule were prepared. Test molecules (or medium as a control) were added after aspiration of the virus-containing media 2 hours post-infection in 3-fold dilutions at a final DMSO concentration of 1%. After 48 hrs, cells were washed and cellular RNA were isolated. In this study, we used a quantitative real time PCR method to quantitate dengue viral RNA in Huh-7 in the presence of inhibitors. Viral RNA and endogenous 18S rRNA control (Applied Bio System) was quantified by a real time PCR assay using the following primers. Dengue Reverse (Common to all the serotypes): 5’-[…]-3’, Dengue forward serotype 1: 5’-[…]-3’, Dengue forward serotype 2 or 3: 5’-[…]-3’, Dengue forward serotype 4: 5’-[…] -3’ and Dengue probe (Common to all the serotypes): 5'-/56-FAM/[…]/3BHQ_1/-3'. Taqman was performed in duplicate. IC50 was obtained using the following calculations. First ΔCt was calculated by subtracting 18S rRNA CT value from dengue RNA CT value. ΔCts from duplicate taqman assay were averaged. Then ΔΔCt was obtained by subtracting the average ΔCt of non-treated sample from the treated sample average ΔCt. Relative quantification was calculated using the following formula. Relative quantification = 2^-averageΔΔCT. The 50% inhibitory concentrations (EC50) were calculated using the sigmoidal dose-response model in Microsoft XLfit.

[2] = tested on: DENV-3; assay: as above; format: cell-based, dengue virus; settings: 48 hrs, mean ± SD of 3 experiments
Experimental: as §1

[3] = tested on: DENV-4; assay: as above; format: cell-based, dengue virus; settings: 48 hrs, mean ± SD of 3 experiments
Experimental: as §1

[4] = tested on: DENV-2; assay: as above; format: cell-based, dengue virus; settings: 48 hrs, mean ± SD of 3 experiments
Experimental: as §1

[5] = tested on: DENV reference strains and clinical isolates; assay: Inhibition of DENV replication in Huh-7 cells, summary over all strains; format: cell-based, dengue virus
Experimental: The mean and standard deviation shown represent 3 independent (different date) experiments for each virus tested. Huh-7 cells were plated in 96-well plate at 10,000 cells/well in DMEM containing 10 % FBS in 100 μl volume one day prior to set up of the assay. The following day the medium was aspirated off and diluted virus at a multiplicity of infection of 0.5 or media was added to the assay and control wells, respectively. The virus was allowed to attach to the cells for two hours at 37°C in a humidified 5% C02 atmosphere while the dilutions of the test molecule were prepared. Test molecules (or medium as a control) were added after aspiration of the virus-containing media 2 hours post-infection in 3-fold dilutions at a final DMSO concentration of 1%. After 48 hrs, cells were washed and cellular RNA were isolated. In this study, we used a quantitative real time PCR method to quantitate dengue viral RNA in Huh-7 in the presence of inhibitors. Viral RNA and endogenous 18S rRNA control (Applied Bio System) was quantified by a real time PCR assay using the following primers. […] Taqman was performed in duplicate. […] First ΔCt was calculated by subtracting 18S rRNA CT value from dengue RNA CT value. ΔCts from duplicate taqman assay were averaged. […] Relative quantification was calculated using the following formula. Relative quantification = 2^-averageΔΔCT. […]

[6] = tested on: DENV-1, DENV-2, and DENV-4; assay: Activity against DENV in primary human macrophages; format: cell-based; settings: Dengue virus, Macrophage, DENV-1, DENV-2, DENV-4, data not shown, read-out: mean EC50 range
[7] = clinical; settings: human, in vivo
Experimental: Randomization to treatment group was by computer-generated randomization sequencing in blocks of 2. Balapiravir was formulated in a 500-mg film-coated tablet. The placebo consisted of an identical looking tablet containing excipient only. All balapiravir and placebo tablets were provided by F. Hoffmann-La Roche. Patients in cohort 1 (n = 20) received 1500 mg of balapiravir or an identical placebo orally every 12 hours for 5 days (10 doses). The decision to dose escalate (to 3000 mg) was made after review of the partially unblinded group mean clinical and laboratory data acquired from patients in cohort 1. Patients in cohort 2 (n = 44) received 3000 mg of balapiravir or placebo orally twice a day for 5 days (10 doses).
Serum samples for pharmacokinetic investigations were collected at time 0 (predose) and 2, 4, 8, and 12 hours postdose on days 1 and 5. Pharmacokinetics parameters were calculated using noncompartmental methods.

[8] = cited from earlier work
[9] = tested on: DENV-1, DENV-2, and DENV-4; assay: Activity against DENV in dendritic cells; format: cell-based; settings: Dengue virus, Dendritic cell, DENV-1, DENV-2, DENV-4, data not shown, read-out: mean EC50 range

C#C[C@@]1(O)[C@H](O)[C@@H](CO)O[C@H]1n1ccc2c(N)ncnc21 [NITD008, reference compound]
IC50 ([1]; DENV-1 strain FR28 (clinical isolate)): 500 ± 100 nM | IC50 ([1]; DENV-1 strain FR34 (clinical isolate)): 500 ± 200 nM | IC50 ([1]; DENV-1 strain FR37 (clinical isolate)): 400 ± 100 nM | IC50 ([1]; DENV-1 strain FR42 (clinical isolate)): 500 ± 200 nM | IC50 ([1]; DENV-1 strain Thsman): 400 ± 100 nM | IC50 ([2]; DENV-3 strain 33/0072 (clinical isolate), Huh-7 cells): 500 ± 200 nM | IC50 ([2]; DENV-3 strain 33/0096 (clinical isolate), Huh-7 cells): 300 ± 100 nM | IC50 ([2]; DENV-3 strain 33/0177 (clinical isolate), Huh-7 cells): 300 nM | IC50 ([2]; DENV-3 strain 33/0253 (clinical isolate), Huh-7 cells): 600 nM | IC50 ([2]; DENV-3 strain H87, Huh-7 cells): 400 ± 100 nM | IC50 ([3]; DENV-4 strain H241, Huh-7 cells): 600 ± 100 nM | IC50 ([3]; DENV-4 strain Phili/1567, Huh-7 cells): 100 ± 100 nM | IC50 ([3]; DENV-4 strain Senga/DA, Huh-7 cells): 300 ± 100 nM | IC50 ([3]; DENV-4 strain Venz/JQ, Huh-7 cells): 200 ± 100 nM | IC50 ([4]; DENV-2 strain 32/0102 (clinical isolate), Huh-7 cells): 500 ± 200 nM | IC50 ([4]; DENV-2 strain 32/0140 (clinical isolate), Huh-7 cells): 300 nM | IC50 ([4]; DENV-2 strain 33/0051 (clinical isolate), Huh-7 cells): 400 ± 200 nM | IC50 ([4]; DENV-2 strain 33/0178 (clinical isolate), Huh-7 cells): 300 ± 200 nM | IC50 ([4]; DENV-2 strain Th36, Huh-7 cells): 500 ± 100 nM | IC50 ([5]; Huh-7 cells, range over DENV strains, read-out: Mean values of median inhibitory concentration (IC50)): 100 to 600 nM

[N-]=[N+]=N[C@]1(CO)O[C@@H](n2ccc(N)nc2=O)[C@H](O)[C@@H]1O [R1479, 4′-azidocytidine]
EC50 [6]: 1300 to 3200 nM | Cmax [7]: 25 to 145 µM | mean Cmin concentrations that may need to be exceeded for antiviral effects on DENV [7]: 6.7 to 39 µM | Cmax ([7]; 1500 mg, Cmax): 16.5 µM | Cmax ([7]; 1500 mg, plasma Cmax of R1479): > 6 µM | Cmax ([7]; 3000 mg, Cmax): 23.9 µM | Cmax above the HCV replicon EC50 ([8]; 500 mg balapiravir twice daily): > 5 fold | mean plasma trough level above the human serum adjusted HCV replicon EC50 ([8]; 1500 mg balapiravir twice daily): 3.5 fold | ratio of mean plasma trough level to human serum adjusted HCV replicon EC50 ([8]; 3000 mg balapiravir twice daily): 4.9 | ratio of mean plasma trough level to human serum adjusted HCV replicon EC50 ([8]; 4500 mg balapiravir twice daily): 7.8 | EC50 [9]: 5200 to 6000 nM | EC50 ([5]; Dengue virus, Huh-7, read-out: mean half maximal effective concentration (EC50) values): 1900 to 11000 nM
